Data published in patent US9447122B2, “Arginase inhibitors and methods of use thereof” (AstraZeneca AB, priority 2010, dated 2016).
Where two headings read alike, the source gives them in different places.

Key:
human arginase I = biological target: T1, human arginase I (Homo sapiens, UniProt P05089); assay: Arginase inhibition, QuantiChrom colorimetric urea assay, IC50 converted to Ki; type: biochemical; conditions: Table 3
T1 sequence (P05089 1-322): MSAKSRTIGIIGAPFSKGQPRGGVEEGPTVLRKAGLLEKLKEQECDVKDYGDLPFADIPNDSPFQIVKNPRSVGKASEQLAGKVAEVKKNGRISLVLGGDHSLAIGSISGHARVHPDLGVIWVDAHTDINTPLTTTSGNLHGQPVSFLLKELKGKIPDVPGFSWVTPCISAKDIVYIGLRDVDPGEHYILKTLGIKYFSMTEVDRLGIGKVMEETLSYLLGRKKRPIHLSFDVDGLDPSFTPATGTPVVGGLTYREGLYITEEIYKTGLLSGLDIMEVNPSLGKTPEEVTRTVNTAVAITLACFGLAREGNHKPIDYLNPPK
Protocol: (§1) For some compounds, their inhibitory potency at pH 7.5 was compared to the inhibitory potency of ABH at pH 7.5.
(§2) Quantitative determination of arginase activity was performed in a 96-well format by a colorimetric method using the QuantiChrom™ Arginase Assay Kit available from BioAssay Systems (Hayward, Calif., Catalog No. DARG-200) according to the manufacturer's protocol. Modifications were made to reagent quantities to suit the assaying of a highly purified sample.
(§3) The intensity of the color was directly proportional to the arginase activity in the sample.
(§4) The rate of urea production was measured in the presence of twelve different concentrations of each potential inhibitor compound. In a typical assay, seven different compounds were tested relative to a control inhibitor (e.g. ABH) against one enzyme (either human ArgI or human ArgII) at a particular pH (either 9.5 or 7.5). The pH of the solution was controlled using an appropriate pH buffering compound at 60 mM concentrations; for example, 60 mM glycine (pH 9.5) or 60 mM HEPES (pH 7.5). The half maximal inhibitory concentration (IC50) was determined by constructing a dose-response curve.

human arginase II = biological target: T2, human arginase II (Homo sapiens, UniProt P78540); assay: as above; type: biochemical; conditions: Table 3
T2 sequence (P78540 23-354): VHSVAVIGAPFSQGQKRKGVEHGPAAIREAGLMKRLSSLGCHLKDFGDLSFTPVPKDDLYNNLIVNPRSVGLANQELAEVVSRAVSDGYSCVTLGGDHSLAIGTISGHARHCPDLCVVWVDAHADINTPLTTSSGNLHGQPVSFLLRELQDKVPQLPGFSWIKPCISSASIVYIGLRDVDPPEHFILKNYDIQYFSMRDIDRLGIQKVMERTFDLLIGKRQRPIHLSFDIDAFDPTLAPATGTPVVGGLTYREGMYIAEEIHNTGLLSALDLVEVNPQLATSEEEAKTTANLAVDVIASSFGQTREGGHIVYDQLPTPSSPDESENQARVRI
Protocol: as §1, §2, §3, §4

[1] = pH 7.5, read-out: human Arginase I pH 7.5, Ki assigned value
[2] = pH 9.5, read-out: human Arginase I pH 9.5, Ki assigned value
[3] = pH 7.5, read-out: human Arginase II pH 7.5, Ki assigned value
[4] = pH 9.5, read-out: human Arginase II pH 9.5, Ki assigned value

SMILES	Ki (human arginase I; [1]) [µM]	Ki (human arginase I; [2]) [µM]	Ki (human arginase II; [3]) [µM]	Ki (human arginase II; [4]) [µM]
NC(CCCCB(O)O)(CCCN1CCCC1)C(=O)O (stereo not shown) [Example 56]	0.011 to 0.05	0.011 to 0.05	0.051 to 0.1	0.101 to 0.25
NC(CCCCB(O)O)(CCCN1CCC1)C(=O)O (stereo not shown) [Example 57]	< 0.01	0.011 to 0.05	0.011 to 0.05	0.051 to 0.1
NC(CCCCB(O)O)(CCCN1CC(c2ccccc2)C1)C(=O)O (stereo not shown) [Example 58]	< 0.01	0.011 to 0.05	0.011 to 0.05	0.011 to 0.05
NC(CCCCB(O)O)(CCCN1CCSCC1)C(=O)O (stereo not shown) [Example 65]	0.011 to 0.05	0.051 to 0.1	0.011 to 0.05	> 0.4
NC(CCCCB(O)O)(CCCNCCc1ccccc1)C(=O)O (stereo not shown) [Example 67]	< 0.01	< 0.01	< 0.01	< 0.01
CN(CCCC(N)(CCCCB(O)O)C(=O)O)CCc1ccccc1 (stereo not shown) [Example 68]	0.011 to 0.05	0.011 to 0.05	0.011 to 0.05	0.011 to 0.05
NC(CCCCB(O)O)(CCCNC1CCCCC1)C(=O)O (stereo not shown) [Example 77]	< 0.01	< 0.01	< 0.01	0.011 to 0.05
CN(C)CCN(C)CCCC(N)(CCCCB(O)O)C(=O)O (stereo not shown) [Example 88]	0.051 to 0.1	0.011 to 0.05	0.051 to 0.1	0.051 to 0.1
CN(C)CCNCCCC(N)(CCCCB(O)O)C(=O)O (stereo not shown) [Example 89]	< 0.01	< 0.01	< 0.01	0.011 to 0.05
NC(CCCCB(O)O)(CCCCN1CCNCC1)C(=O)O (stereo not shown) [Example 93]	0.011 to 0.05	0.011 to 0.05	> 0.4	0.011 to 0.05
NC(CCCCB(O)O)(CCCCN1CCN(c2ccc(Cl)c(Cl)c2)CC1)C(=O)O (stereo not shown) [Example 94]	0.011 to 0.05	0.011 to 0.05	< 0.01	0.011 to 0.05
NC(CCCCB(O)O)(CCCCN1CCc2ccccc2C1)C(=O)O (stereo not shown) [Example 96]	0.011 to 0.05	0.011 to 0.05	0.011 to 0.05	0.011 to 0.05
NC(CCCCB(O)O)(CCCN1C2CCC1CC(n1cnc3ccccc31)C2)C(=O)O (stereo not shown) [Example 102]	< 0.01	0.011 to 0.05	< 0.01	0.011 to 0.05
NC(CCCCB(O)O)(CCCN1CCC(Nc2ccccc2)CC1)C(=O)O (stereo not shown) [Example 103]	< 0.01	0.011 to 0.05	< 0.01	0.011 to 0.05
CN1CCN(CCCC(N)(CCCCB(O)O)C(=O)O)CC1 (stereo not shown) [Example 106]	0.011 to 0.05	0.011 to 0.05	0.011 to 0.05	0.251 to 0.4

Results, then the compound that gave them:

Ki (human arginase I; [1]) [µM]	Ki (human arginase I; [2]) [µM]	Ki (human arginase II; [3]) [µM]	Ki (human arginase II; [4]) [µM]	SMILES
0.011 to 0.05	0.011 to 0.05	0.011 to 0.05	0.051 to 0.1	NC(CCCCB(O)O)(CCCN1CCCC1c1ccc(-c2ccccc2)cc1)C(=O)O (stereo not shown) [Example 54]
< 0.01	< 0.01	< 0.01	0.011 to 0.05	NC(CCCCB(O)O)(CCCN1CC(NC(=O)Nc2ccc(Cl)c(Cl)c2)C1)C(=O)O (stereo not shown) [Example 60]
< 0.01	0.011 to 0.05	0.011 to 0.05	0.051 to 0.1	NC(CCCCB(O)O)(CCCN1CCOCC1)C(=O)O (stereo not shown) [Example 64]
0.011 to 0.05	0.011 to 0.05	0.051 to 0.1	0.011 to 0.05	CN(CCCC(N)(CCCCB(O)O)C(=O)O)C1CCCCC1 (stereo not shown) [Example 78]
0.011 to 0.05	0.011 to 0.05	0.011 to 0.05	0.101 to 0.25	COCCN(C)CCCC(N)(CCCCB(O)O)C(=O)O (stereo not shown) [Example 85]
0.051 to 0.1	< 0.01	0.011 to 0.05	< 0.01	NC(CCCCB(O)O)(CCCCN1CCC(Cc2ccc(F)c(F)c2)CC1)C(=O)O (stereo not shown) [Example 95]
< 0.01	0.011 to 0.05	< 0.01	0.011 to 0.05	NC(CCCCB(O)O)(CCCN1CCC(C(=O)c2ccc(F)cc2)CC1)C(=O)O (stereo not shown) [Example 101]
